Laboratory results: patent US20260125382A1, “COMPOUNDS FOR INHIBITING OR DEGRADING CDK2 AND/OR CDK9 AND MEDICINAL USE THEREOF” (KOREA RESEARCH INSTITUTE OF CHEMICAL TECHNOLOGY, priority 2022, published 2026)
pIC50: −log10 of the molar value.

What was measured:
CDK2 = target: T1, CDK2 (Homo sapiens, UniProt P24941); test: CDK protein degradation activity (Western blotting), CDK2; type: cell-based; details: MDA-MB-231 cells, 16 hours, Western blot
T1 construct: endogenous in cells; host or cells: MDA-MB-231
Outline: (§1)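 Seed MDA-MB-231 cells; next day add compound to 100 nM, 1 μM or 10 μM final, or DMSO. After 16 h, harvest and lyse in Triton X-100 buffer, run SDS-PAGE, probe for CDK2, CDK9 and tubulin.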

CDK9 = target: T2, CDK9 (Homo sapiens, UniProt P50750); test: CDK protein degradation activity (Western blotting), CDK9; type: cell-based; details: MDA-MB-231 cells, 16 hours, Western blot
T2 construct: endogenous in cells; host or cells: MDA-MB-231
Outline: as §1

CDK2/cyclin A = target: T3, CDK2/cyclin A (Homo sapiens, UniProt P24941); test: CDK protein inhibition, KINOMEscan (Eurofins), CDK2/cyclin A; type: binding; details: for pIC50: Table 17, unit inferred
T3 construct: purchased Eurofins Scientific

T2 sequence (P50750 whole entry): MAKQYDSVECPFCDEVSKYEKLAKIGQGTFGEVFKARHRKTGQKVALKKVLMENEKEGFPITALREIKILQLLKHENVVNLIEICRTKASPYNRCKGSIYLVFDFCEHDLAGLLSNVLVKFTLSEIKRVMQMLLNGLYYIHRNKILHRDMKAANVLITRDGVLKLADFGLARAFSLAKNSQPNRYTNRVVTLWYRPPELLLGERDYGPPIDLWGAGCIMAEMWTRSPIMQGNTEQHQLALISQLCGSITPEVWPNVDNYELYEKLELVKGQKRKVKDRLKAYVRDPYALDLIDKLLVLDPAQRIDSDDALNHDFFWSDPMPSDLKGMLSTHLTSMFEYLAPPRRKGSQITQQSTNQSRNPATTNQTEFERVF

Compound	Enzyme degradation CDK2 (% remaining) @ 0.1 μM (CDK2)	Enzyme degradation CDK2 (% remaining) @ 1 μM (CDK2)	Enzyme degradation CDK2 (% remaining) @ 10 μM (CDK2)	Enzyme degradation CDK9 (% remaining) @ 0.1 μM (CDK9)	Enzyme degradation CDK9 (% remaining) @ 1 μM (CDK9)	Enzyme degradation CDK9 (% remaining) @ 10 μM (CDK9)	CDK2/cyclin A inhibition (%) (at concentration of 1 μM) (CDK2/cyclin A)	pIC50 (CDK2/cyclin A)
Cc1cccc(C(=O)N[C@H]2C[C@H](n3cnc4c(NCC5CCN(C(=O)CCCCCNC(=O)CNc6ccc7c(c6)C(=O)N([C@@H]6CCC(=O)NC6=O)C7=O)CC5)ncnc43)C2)n1 (stereo in doubt) [Compound 61, N-((1r,3r)-3-(6-(((1-(6-(2-((2-(2,6-dioxopiperidin-3-yl)-1,3-dioxoisoindolin-5-yl)amino)acetamido)hexanoyl)piperidin-4-yl)methyl)amino)-9H-purin-9-yl)cyclobutyl)-6-methylpicolinamide]	100%	100%	40%	80%	50%	10%	84%	–
Cc1cccc(C(=O)N[C@H]2C[C@H](n3cnc4c(NCC5CCN(C(=O)CCCCCNc6ccc7c(c6)C(=O)N([C@@H]6CCC(=O)NC6=O)C7=O)CC5)ncnc43)C2)n1 [Compound 65, N-((1r,3r)-3-(6-(((1-(6-((2-(2,6-dioxopiperidin-3-yl)-1,3-dioxoisoindolin-5-yl)amino)hexanoyl)piperidin-4-yl)methyl)amino)-9H-purin-9-yl)cyclobutyl)-6-methylpicolinamide]	100%	50%	20%	30%	10%	0%	87%	–
Cc1cccc(C(=O)N[C@H]2C[C@@H](n3cnc4c(Nc5ccc(N6CCN(CC7CCN(C(=O)COc8cccc9c8C(=O)N(C8CCC(=O)NC8=O)C9=O)CC7)CC6)cc5)ncnc43)C2)n1 (stereo partly shown) [Compound 91, N-((1s,3s)-3-(6-((4-(4-((1-(2-((2-(2,6-dioxopiperidin-3-yl)-1,3-dioxoisoindolin-4-yl)oxy)acetyl)piperidin-4-yl)methyl)piperazin-1-yl)phenyl)amino)-9H-purin-9-yl)cyclobutyl)-6-methylpicolinamide]	0/0/0%	0/0/0%	0/0/0%	0/0/0%	0/0/0%	0/0/0%	–	6.21
Cc1cccc(C(=O)N[C@H]2C[C@@H](n3cnc4c(NCCC5CCN(CC6CCN(C(=O)CNc7ccc8c(c7)C(=O)N(C7CCC(=O)NC7=O)C8=O)CC6)CC5)ncnc43)C2)n1 (stereo partly shown) [Compound 125, N-((1s,3s)-3-(6-((2-(1-((1-((2-(2,6-dioxopiperidin-3-yl)-1,3-dioxoisoindolin-5-yl)glycyl)piperidin-4-yl)methyl)piperidin-4-yl)ethyl)amino)-9H-purin-9-yl)cyclobutyl)-6-methylpicolinamide]	30%	10%	20%	0/0/0%	0/0/0%	0/0/0%	–	5.89
